# Test results: patent US5567676A, “Glycopeptide antibiotics” (Gruppo Lepetit S.p.A, priority 1986, dated 1996)
# Tests used:
# [1] = system: different microorganism cultures; assay: In vitro antibacterial activity, standard dilution tests (microorganisms of Table I); assay type: cell-based
# [2] = system: Strep. mitis L796 (clinical isolate); assay: MIC, broth dilution test; assay type: cell-based; details: Todd-Hewitt broth, 24 h, 37° C.
# [3] = system: Haemophilus influenzae L 970 type b ATCC 19418; assay: MIC, broth dilution test; assay type: cell-based; details: Brain Heart broth +1% Supplement C, 48 h, 37° C.
# [4] = system: Pseudomonas aeruginosa L4 ATCC10145; assay: MIC, broth dilution test; assay type: cell-based; details: Isosensitest broth, 24 h, 37° C.
# Staph. aureus L165 = assay: MIC, broth dilution test; assay type: cell-based; details: Isosensitest broth, 24 h
# [5] = system: Staph. haemolyticus L602 (clinical isolate); assay: MIC, broth dilution test; assay type: cell-based; details: Isosensitest broth, 24 h, 37° C.
# [6] = system: Proteus vulgaris L79 X19H ATCC881; assay: MIC, broth dilution test; assay type: cell-based; details: Isosensitest broth, 24 h, 37° C.
# [7] = system: Strep. faecalis L149 ATCC 7080; assay: MIC, broth dilution test; assay type: cell-based; details: Isosensitest broth, 24 h, 37° C.
# [8] = system: Clostridium perfringens L290 ISS 30543; details: AC broth, 24 h, anaerobic atmosphere, 37° C.
# [9] = system: Neisseria gonorrhoeae L997 ISM68/126; assay: MIC, broth dilution test; assay type: cell-based; details: GC base broth +1% Isovitalex, 48 h, CO2-enriched atmosphere, 37° C.
# S. pyogenes C 203 (L 49) = assay: Experimental septicemia in the mice; assay type: in vivo, CD-1 mice; details: mice infected i.p. with S. pyogenes C 203 (L 49); compound s.c. immediately after infection; survival on the 7th day, Spearman and Karber
# Procedure: The antimicrobial activity of the compounds of the invention is confirmed also in experimental septicemia in the mice. Control and treatment groups may include ten CD-1 mice (Charles River) weighing 18-22 g. They are infected intraperitoneally with 0.5 ml of bacterial suspension prepared by diluting an overnight culture of S. pyogenes C 203 (L 49) with sterile peptonized saline. Inocula are adjusted so that untreated animals die of septicemia within 48 h. The compounds to be tested are administered subcutaneously immediately after infection. On the 7th day, the ED50 in mg/kg is calculated by the method of Spearman and Karber (D. J. Finney "Statistical Methods in Biological Assay" Griffin, page 524, 1952) from the percentage of surviving animals at each dose.
# [10] = system: Ureaplasma urealyticum L1479 (clinical isolate); assay: MIC, broth dilution test; assay type: cell-based; details: PPLO broth with supplements, 24 h, about 10^4 color-changing units/ml, 37° C.
# [11] = system: Klebsiella pneumoniae L142; assay: MIC, broth dilution test; assay type: cell-based; details: Isosensitest broth, 24 h, 37° C.
# Strep. pyogenes L49 C203 = assay: MIC, broth dilution test; assay type: cell-based; details: Todd-Hewitt broth, 24 h, 37° C.
# [12] = system: Strep. pneumoniae L44 UC41; assay: MIC, broth dilution test; assay type: cell-based; details: Todd-Hewitt broth, 24 h, 37° C.
# [13] = system: Staph. epidermidis L147 ATCC 12228 (coagulase negative); details: Isosensitest broth, 24 h, 37° C.
Substance,level of antimicrobial activity compared with de-acyl antibiotic A 40926 (Table I) [1],M.I.C. [2],M.I.C. [3],M.I.C. [4],M.I.C. (Staph. aureus L165; Staph. aureus (10^6 cfu/ml)),M.I.C. (Staph. aureus L165; Staph. aureus (30% bovine serum)),"M.I.C. (Staph. aureus L165; Staph. aureus L165, 37° C., about 10^4-10^5 cfu/ml)",M.I.C. [5],M.I.C. [6],M.I.C. [7],M.I.C. [8],M.I.C. [9],ED50 (S. pyogenes C 203 (L 49)),M.I.C. [10],M.I.C. [11],M.I.C. (Strep. pyogenes L49 C203),M.I.C. [12],M.I.C. [13]
de-acyl antibiotic A 40926 P,substantially the same level of antimicrobial activity as that reported above for de-acyl antibiotic A 40926,–,–,–,–,–,–,–,–,–,–,–,–,–,–,–,–,–
de-acyl antibiotic A 40926,–,0.5 µg/mL,128 µg/mL,> 128 µg/mL,2 µg/mL,2 µg/mL,1 µg/mL,32 µg/mL,> 128 µg/mL,2 µg/mL,0.13 µg/mL,64 µg/mL,2.33 mg/kg,> 128 µg/mL,> 128 µg/mL,0.25 µg/mL,0.25 µg/mL,2 µg/mL
antibiotic A 40926 aminoglucuronyl aglycon,substantially the same level of antimicrobial activity as that reported above for de-acyl antibiotic A 40926,–,–,–,–,–,–,–,–,–,–,–,–,–,–,–,–,–
